{
  "source": "patent US20220008401A1",
  "about": "“COMPOSITIONS AND METHODS FOR TREATING PULMONARY DISEASE WITH MATRIX METALLOPROTEINASE INHIBITORS” (DARSHA LLC, priority 2019, published 2022)",
  "key": {"[1]": {"assay": "Lung homogenate levels after nebulized Compound 1, Example 5 (mass spectroscopy)", "type": "in vivo, C57/BL6 mice", "details": "for Compound 1 levels in the lung: nebulized, dose groups pooled, lung homogenate, n=6", "method": "In this test, C57/BL6 mice were divided into three treatment groups, where they received nebulized Compound 1 at high dose (10 mg/kg), medium dose (5 mg/kg) and, low dose (2 mg/kg). Animals were sacrificed at 1, 3 and, 5 hours (n=3 mice per time point) followed by collection of lung homogenates. Homogenates were analyzed by mass spectroscopy to determine Compound 1 levels in the lung."}, "[2]": {"test_system": "mice exposed to cigarette smoke", "assay": "Cigarette smoke exposure model, BALF total cell counts", "type": "in vivo", "details": "cigarette smoke 10 days; inhaled Compound 1 once a day for last four days; sacrifice 1 hour after final dose", "method": "In order to determine if the observed effects of Compound 1 were specific to a model of acute lung injury, we exposed mice to cigarette smoke, a more chronic model of lung injury, for 10 days while treating once a day with inhaled Compound 1 for the last four days of smoke exposure. Mice were sacrificed 1 hour following their final dose of Compound 1 on the 10th day. BALF was collected and total cell counts were performed. […] (*p<0.05)."}, "[3]": {"test_system": "LPS injured mice", "assay": "FITC-albumin exclusion assay (BALF:serum), LPS-injured mice, q6h x 4 doses", "type": "in vivo", "details": "LPS then inhaled Compound 1 every 6 hours for 4 doses; n=5 (LPS alone 1.04±0.13, PBS 0.44±0.11)", "method": "Based on the data, the effect of a 6 hour dosing interval (q6h) of Compound 1 on injured mice lung was explored. FIG. 8B schematizes the experimental LPS injury/Compound 1 treatment workflow utilized unless otherwise indicated. Briefly, mice were nasally instilled with LPS (1.5 mg/kg) followed by initiation of Compound 1 treatment 24 hours later (i.e., after a 24 hours rest period). Four doses of Compound 1 (12 mg/kg) were administered via nebulizer every 6 hours to maintain a constant presence of compound in the lung. PBS was administered as a control. Mice were sacrificed 6 hours following the fourth dose. It was next determined if LPS induced edema was a result of increased permeability of the pulmonary vascular barrier. This was achieved using a FITC-albumin exclusion assay. Approximately 1 hour prior to sacrifice, mice received a tail vein injection of 3 mg of FITC labeled albumin. BALF and serum were collected and the amount of labeled albumin in each sample (BALF FITC Albumin:serum FITC Albumin) was determined using a fluorescent plate reader."}, "[4]": {"test_system": "neutrophils", "assay": "BrdU pulse-chase labeling of newly synthesized neutrophils in BALF of LPS-exposed mice", "type": "in vivo", "details": "LPS treated mice, n=3 (49.3±0.87% without treatment)", "method": "To examine the hypothesis that reduced neutrophil counts in response to Compound 1 treatment resulted from decreased cell migration from the pulmonary circulation, pulse-chase labeling of newly synthesized neutrophils in LPS exposed animals was performed. LPS or saline was nasally instilled into mice which were then allowed to recover for 24 hours. Following this, an intraperitoneal injection (IP injections) of bromodeoxyuridine (BrdU) was administered and animals were allowed to rest for 2.5 hours. A 2.5-hour rest period was selected since it was previously determined that BrdU labeled neutrophils take about 3 hours to reach and infiltrate the lungs. At 2.5 hours animals received inhaled Compound 1 or PBS and were sacrificed at either 15- or 45 minutes post-treatment. Cytospin slides were generated from BALF and immunofluorescently stained for BrdU and MPO to identify neutrophils. Confocal images were taken of cytospins stained for BrdU and MPO (myeloperoxidase). The number of BrdU (+) and BrdU (−) neutrophils was quantified."}, "[5]": {"target": "MMP 9 (Mus musculus, UniProt P41245)", "sequence (P41245 108-730)": "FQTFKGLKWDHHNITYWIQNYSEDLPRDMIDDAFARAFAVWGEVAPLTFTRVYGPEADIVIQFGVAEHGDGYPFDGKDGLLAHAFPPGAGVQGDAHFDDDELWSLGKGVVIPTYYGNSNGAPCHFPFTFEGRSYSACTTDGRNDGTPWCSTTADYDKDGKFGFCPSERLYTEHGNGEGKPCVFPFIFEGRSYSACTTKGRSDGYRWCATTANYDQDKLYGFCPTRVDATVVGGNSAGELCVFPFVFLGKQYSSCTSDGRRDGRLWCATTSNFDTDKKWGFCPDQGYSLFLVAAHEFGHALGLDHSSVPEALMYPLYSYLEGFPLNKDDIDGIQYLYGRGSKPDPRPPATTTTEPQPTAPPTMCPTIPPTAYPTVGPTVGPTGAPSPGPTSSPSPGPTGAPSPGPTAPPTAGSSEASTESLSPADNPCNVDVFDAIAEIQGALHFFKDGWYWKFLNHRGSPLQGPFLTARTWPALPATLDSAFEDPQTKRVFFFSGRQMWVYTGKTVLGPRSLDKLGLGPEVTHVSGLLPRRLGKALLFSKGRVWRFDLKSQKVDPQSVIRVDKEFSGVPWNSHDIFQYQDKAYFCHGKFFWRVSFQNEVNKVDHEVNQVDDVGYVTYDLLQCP", "assay": "MMP-9 Quantikine assay on lung homogenates of LPS-injured mice", "type": "in vivo", "design": "One-hour post-Compound 1 treatment lung homogenates were collected and analyzed; from tissue; host or cells: lung tissue homogenate of LPS-injured mice", "method": "Inhibition of MMP-9 by inhaled Compound 1 treatment was assessed using a Quantikine Assay (R&D systems). Mice were injured by nasal instillation of LPS followed by treatment with inhaled PBS or Compound 1 (5 mg/mL). One-hour post-Compound 1 treatment lung homogenates were collected and analyzed."}, "[6]": {"test_system": "neutrophils (PMN)", "assay": "BALF cell counts (cytospin, DifQuik), LPS-injured mice, single inhaled dose", "type": "in vivo", "details": "1 hour following treatment", "method": "Since substantial literature indicates neutrophils (PMN) are critical mediators of inflammatory damage in injured lung, we next assessed if inhaled Compound 1 attenuated PMN infiltration of LPS injured lungs. To achieve this, mice were injured with LPS and 24 h later received a single inhaled dose of Compound 1 and were sacrificed 1 hour after dosing. PMN infiltration was assessed by examining lung sections (qualitatively) and BALF (quantitatively) from Compound 1 treated and untreated mice. Quantitative examination was performed on BALF samples that were collected from each animal and subsequently subjected to cytospin centrifugation and DifQuik staining. The fraction of PMN present in each sample may be quantified by counting 300 cells of the inflammatory cell population across three different microscopic images. The obtained fraction may then be multiplied by the total cell count to estimate the number of PMNs present in the BALF."}, "[7]": {"test_system": "neutrophils", "assay": "MTT assay of neutrophil viability", "type": "cell-based, human", "details": "1 hour exposure, high and low concentrations", "method": "To ensure the observed effects were not a result of reduced neutrophil viability, an MTT assay was utilized. Neutrophils were exposed to Compound 1 for 1 hour followed by addition of MTT to the culture medium for 30 minutes. Cells were then solubilized in DMSO and the absorbances were read on a microplate reader."}, "[8]": {"details": "LPS treated mice, single inhaled dose"}},
  "data": [
    {"substance": "butanamide, N-hydroxy-2-[[(4-hydroxyphenyl)sulfonyl](3-pyridinylmethyl)amino]-3-methyl, hydrochloride, (2R) [Compound 1]", "values": [
      {"measurement": "Compound 1 levels in the lung", "setting": "[1]; 1 h post-inhalation", "result": "310.7 ± 85.38", "unit": "ng/g"},
      {"measurement": "Compound 1 levels in the lung", "setting": "[1]; 3 h post-inhalation", "result": "49.03 ± 15.54", "unit": "ng/g"},
      {"measurement": "Compound 1 levels in the lung", "setting": "[1]; 5 h post-inhalation", "result": "24.48 ± 9.96", "unit": "ng/g"},
      {"measurement": "effect of dose size on Compound 1 concentration in lung", "setting": "[1]; high (10 mg/kg), medium (5 mg/kg), low (2 mg/kg) nebulized dose, 1, 3, 5 hours", "result": "no significant effect"},
      {"measurement": "smoke induced increase in BALF cell counts", "setting": "[2]", "result": "failed to attenuate"},
      {"measurement": "FITC-albumin BALF:serum ratio", "setting": "[3]", "result": "0.49±0.13"},
      {"measurement": "percentage of BrdU (+) neutrophils", "setting": "[4]; 15 minutes post inhaled treatment", "result": "16.7±3.6", "unit": "%"},
      {"measurement": "percentage of BrdU (+) neutrophils", "setting": "[4]; 45 minutes post inhaled treatment", "result": "22.7±2.5", "unit": "%"},
      {"measurement": "MMP-9 activity (Quantikine)", "setting": "[5]; LPS nasal instillation then inhaled Compound 1 (5 mg/mL), lung homogenates one hour post-treatment, n=6 (LPS 9260±1173, PBS 2388±370)", "result": "3614±442.1", "unit": "RFU"},
      {"measurement": "MMP-9 levels in whole lung homogenate", "setting": "[5]; LPS-injured, Compound 1 treated animals", "result": "decreased significantly"},
      {"measurement": "total PMN counts in the BALF", "setting": "[6]; LPS then 24 h later single inhaled dose, n=5/group, p=0.01 (LPS/PBS 5.3×10^6)", "result": "1.2×10^6 neutrophils/ml"},
      {"measurement": "macrophage count in the BALF", "setting": "[6]; [8]", "result": "remained unchanged"},
      {"measurement": "overall cell count in BALF", "setting": "[6]; [8]", "result": "significant reduction"},
      {"measurement": "neutrophil viability (MTT, reductive capacity)", "setting": "[7]", "result": "no significant effect on neutrophil viability"}
    ]}
  ]
}
